According to ChEMBL document CHEMBL4004877, “Synthesis and biological evaluation of chalcone, dihydrochalcone, and 1,3-diarylpropane analogs as anti-inflammatory agents” (Bioorg Med Chem Lett, 2017):
≈ marks a conversion by molar mass, not a printed value.

system: RAW264.7; test: Antiinflammatory activity in mouse RAW264.7 cells assessed as inhibition of LPS induced iNOS-dependent nitric oxide production at 1.25 ug/ml after 24 hrs by Griess assay relative to control; type: functional; settings: RAW264.7, 24 h

SMILES | inhibition at 1.25 µg/mL [%]
COc1ccc(C(=O)/C=C/c2ccc(OC)cc2OC)c(O)c1 | 3.4
COc1ccc(CCCc2ccc(OC)c(OC)c2)cc1OC | 8.4
COc1ccc(/C=C/C(=O)c2cccc(O)c2)cc1OC | 1.7
COc1ccc(OC)c(/C=C/C(=O)c2cccc(O)c2)c1 | 2.8
COc1ccc(CCCc2cc(OC)ccc2OC)c(O)c1 | 6.2
COc1ccc(CCCc2cccc(OC)c2OC)c(O)c1 | 21.5
COc1ccc(CCCc2ccc3c(c2)OCO3)c(OC)c1 | 16.9
COc1ccc(CCCc2ccc(OC)cc2OC)c(O)c1 | 10.4
O=C(/C=C/c1ccc2c(c1)OCO2)c1ccc(O)cc1 | 4.9
COc1ccc(/C=C/C(=O)c2cccc(O)c2)c(OC)c1 | 1.6

system: RAW264.7; test: Antiinflammatory activity in mouse RAW264.7 cells assessed as inhibition of LPS induced iNOS-dependent nitric oxide production at 2.5 ug/ml after 24 hrs by Griess assay relative to control; type: functional; settings: RAW264.7, 24 h

SMILES | inhibition at 2.5 µg/mL [%]
COc1ccc(C(=O)/C=C/c2ccc(OC)cc2OC)c(O)c1 | 7.4
COc1ccc(CCCc2ccc(OC)c(OC)c2)cc1OC | 12.7
COc1ccc(/C=C/C(=O)c2cccc(O)c2)cc1OC | 3.3
COc1ccc(OC)c(/C=C/C(=O)c2cccc(O)c2)c1 | 52.3
COc1ccc(CCCc2cc(OC)ccc2OC)c(O)c1 | 31.7
COc1ccc(CCCc2cccc(OC)c2OC)c(O)c1 | 30.3
COc1ccc(CCCc2ccc3c(c2)OCO3)c(OC)c1 | 20.1
COc1ccc(CCCc2ccc(OC)cc2OC)c(O)c1 | 26.9
O=C(/C=C/c1ccc2c(c1)OCO2)c1ccc(O)cc1 | 1.1
COc1ccc(/C=C/C(=O)c2cccc(O)c2)c(OC)c1 | 2.3

system: not listed separately; test: Cytotoxicity against LPS-stimulated mouse RAW264.7 cells assessed as cell viability at 2.5 ug/ml after 24 hrs by MTT assay relative to control; type: cell-based; settings: LPS-stimulated RAW264.7 cells, read-out: Activity

SMILES | viability at 24 h, 2.5 ug/ml [%]
COc1ccc(C(=O)/C=C/c2ccc(OC)cc2OC)c(O)c1 | 90.3
COc1ccc(CCCc2ccc(OC)c(OC)c2)cc1OC | 97.4
COc1ccc(/C=C/C(=O)c2cccc(O)c2)cc1OC | 91
COc1ccc(OC)c(/C=C/C(=O)c2cccc(O)c2)c1 | 72.4
COc1ccc(CCCc2cc(OC)ccc2OC)c(O)c1 | 102
COc1ccc(CCCc2cccc(OC)c2OC)c(O)c1 | 99
COc1ccc(CCCc2ccc3c(c2)OCO3)c(OC)c1 | 97.7
COc1ccc(CCCc2ccc(OC)cc2OC)c(O)c1 | 97.7
O=C(/C=C/c1ccc2c(c1)OCO2)c1ccc(O)cc1 | 95.2
COc1ccc(/C=C/C(=O)c2cccc(O)c2)c(OC)c1 | 74

system: RAW264.7; test: Antiinflammatory activity in mouse RAW264.7 cells assessed as inhibition of LPS induced iNOS-dependent nitric oxide production at 5 ug/ml after 24 hrs by Griess assay relative to control; type: functional; settings: RAW264.7, 24 h

SMILES | inhibition at 5 µg/mL [%]
COc1ccc(C(=O)/C=C/c2ccc(OC)cc2OC)c(O)c1 | 12.2
COc1ccc(CCCc2ccc(OC)c(OC)c2)cc1OC | 26.1
COc1ccc(/C=C/C(=O)c2cccc(O)c2)cc1OC | 3.5
COc1ccc(OC)c(/C=C/C(=O)c2cccc(O)c2)c1 | 52.4
COc1ccc(CCCc2cc(OC)ccc2OC)c(O)c1 | 36.4
COc1ccc(CCCc2cccc(OC)c2OC)c(O)c1 | 30.7
COc1ccc(CCCc2ccc3c(c2)OCO3)c(OC)c1 | 28
COc1ccc(CCCc2ccc(OC)cc2OC)c(O)c1 | 35.2
O=C(/C=C/c1ccc2c(c1)OCO2)c1ccc(O)cc1 | 14.1
COc1ccc(/C=C/C(=O)c2cccc(O)c2)c(OC)c1 | 9

system: RAW264.7; test: Antiinflammatory activity in mouse RAW264.7 cells assessed as inhibition of LPS induced iNOS-dependent nitric oxide production after 24 hrs by Griess assay; type: functional, cell-based; settings: RAW264.7, 24 h

SMILES | IC50 [µg/mL]
COc1ccc(C(=O)/C=C/c2ccc(OC)cc2OC)c(O)c1 | > 10
COc1ccc(CCCc2ccc(OC)c(OC)c2)cc1OC | 9.47 (≈ 29.9 µM)
COc1ccc(/C=C/C(=O)c2cccc(O)c2)cc1OC | 8.38 (≈ 29.5 µM)
COc1ccc(OC)c(/C=C/C(=O)c2cccc(O)c2)c1 | 2.42 (≈ 8.51 µM)
COc1ccc(CCCc2cc(OC)ccc2OC)c(O)c1 | 9.9 (≈ 32.7 µM)
COc1ccc(CCCc2cccc(OC)c2OC)c(O)c1 | 8.79 (≈ 29.1 µM)
COc1ccc(CCCc2ccc3c(c2)OCO3)c(OC)c1 | > 10
COc1ccc(CCCc2ccc(OC)cc2OC)c(O)c1 | 6.71 (≈ 22.2 µM)
O=C(/C=C/c1ccc2c(c1)OCO2)c1ccc(O)cc1 | 9.56 (≈ 35.6 µM)
COc1ccc(/C=C/C(=O)c2cccc(O)c2)c(OC)c1 | 9.42 (≈ 33.1 µM)

system: not listed separately; test: Cytotoxicity against LPS-stimulated mouse RAW264.7 cells assessed as cell viability at 10 ug/ml after 24 hrs by MTT assay relative to control; type: cell-based; settings: LPS-stimulated RAW264.7 cells, read-out: Activity

SMILES | viability at 24 h, 10 ug/ml [%]
COc1ccc(C(=O)/C=C/c2ccc(OC)cc2OC)c(O)c1 | 68
COc1ccc(CCCc2ccc(OC)c(OC)c2)cc1OC | 94.9
COc1ccc(/C=C/C(=O)c2cccc(O)c2)cc1OC | 63.9
COc1ccc(OC)c(/C=C/C(=O)c2cccc(O)c2)c1 | 62.5
COc1ccc(CCCc2cc(OC)ccc2OC)c(O)c1 | 42.5
COc1ccc(CCCc2cccc(OC)c2OC)c(O)c1 | 63
COc1ccc(CCCc2ccc3c(c2)OCO3)c(OC)c1 | 94.7
COc1ccc(CCCc2ccc(OC)cc2OC)c(O)c1 | 25.8
O=C(/C=C/c1ccc2c(c1)OCO2)c1ccc(O)cc1 | 68
COc1ccc(/C=C/C(=O)c2cccc(O)c2)c(OC)c1 | 61.6

system: not listed separately; test: Cytotoxicity against LPS-stimulated mouse RAW264.7 cells assessed as cell viability at 5 ug/ml after 24 hrs by MTT assay relative to control; type: cell-based; settings: LPS-stimulated RAW264.7 cells, read-out: Activity

SMILES | viability at 24 h, 5 ug/ml [%]
COc1ccc(C(=O)/C=C/c2ccc(OC)cc2OC)c(O)c1 | 87.3
COc1ccc(CCCc2ccc(OC)c(OC)c2)cc1OC | 95.6
COc1ccc(/C=C/C(=O)c2cccc(O)c2)cc1OC | 83.8
COc1ccc(OC)c(/C=C/C(=O)c2cccc(O)c2)c1 | 67.3
COc1ccc(CCCc2cc(OC)ccc2OC)c(O)c1 | 98.5
COc1ccc(CCCc2cccc(OC)c2OC)c(O)c1 | 95.2
COc1ccc(CCCc2ccc3c(c2)OCO3)c(OC)c1 | 97.2
COc1ccc(CCCc2ccc(OC)cc2OC)c(O)c1 | 91.5
O=C(/C=C/c1ccc2c(c1)OCO2)c1ccc(O)cc1 | 88.5
COc1ccc(/C=C/C(=O)c2cccc(O)c2)c(OC)c1 | 63

system: not listed separately; test: Cytotoxicity against LPS-stimulated mouse RAW264.7 cells assessed as cell viability at 1.25 ug/ml after 24 hrs by MTT assay relative to control; type: cell-based; settings: LPS-stimulated RAW264.7 cells, read-out: Activity

SMILES | viability at 24 h, 1.25 ug/ml [%]
COc1ccc(C(=O)/C=C/c2ccc(OC)cc2OC)c(O)c1 | 98.7
COc1ccc(CCCc2ccc(OC)c(OC)c2)cc1OC | 99
COc1ccc(/C=C/C(=O)c2cccc(O)c2)cc1OC | 101
COc1ccc(OC)c(/C=C/C(=O)c2cccc(O)c2)c1 | 99
COc1ccc(CCCc2cc(OC)ccc2OC)c(O)c1 | 102
COc1ccc(CCCc2cccc(OC)c2OC)c(O)c1 | 99.1
COc1ccc(CCCc2ccc3c(c2)OCO3)c(OC)c1 | 99.1
COc1ccc(CCCc2ccc(OC)cc2OC)c(O)c1 | 100
O=C(/C=C/c1ccc2c(c1)OCO2)c1ccc(O)cc1 | 99.2
COc1ccc(/C=C/C(=O)c2cccc(O)c2)c(OC)c1 | 97.7

system: RAW264.7; test: Antiinflammatory activity in mouse RAW264.7 cells assessed as inhibition of LPS induced iNOS-dependent nitric oxide production at 10 ug/ml after 24 hrs by Griess assay relative to control; type: functional; settings: RAW264.7, 24 h

SMILES | inhibition at 10 µg/mL [%]
COc1ccc(C(=O)/C=C/c2ccc(OC)cc2OC)c(O)c1 | 2.8
COc1ccc(CCCc2ccc(OC)c(OC)c2)cc1OC | 52
COc1ccc(/C=C/C(=O)c2cccc(O)c2)cc1OC | 65.9
COc1ccc(OC)c(/C=C/C(=O)c2cccc(O)c2)c1 | 77.1
COc1ccc(CCCc2cc(OC)ccc2OC)c(O)c1 | 50.2
COc1ccc(CCCc2cccc(OC)c2OC)c(O)c1 | 54.4
COc1ccc(CCCc2ccc3c(c2)OCO3)c(OC)c1 | 44.6
COc1ccc(CCCc2ccc(OC)cc2OC)c(O)c1 | 70
O=C(/C=C/c1ccc2c(c1)OCO2)c1ccc(O)cc1 | 52.5
COc1ccc(/C=C/C(=O)c2cccc(O)c2)c(OC)c1 | 53.9
